These results are taken from PMC12383012 (Antioxidants, 2025).

Data set [1] can be described thus: Free-radical-scavenging assay (DPPH method). Conditions: for % AA (radical-scavenging activity): compound concentration 100 μM; for EC50: read-out: AA EC50. The method, then: The percentage of radical-scavenging activity (%AA, antioxidant capacity) of the RIV hybrids was first determined by the 2,2-diphenyl-1-picrylhydrazyl (DPPH) method using a compound concentration of 100 μM. […] Each calibration point was kept 30 min in darkness, and afterwards, the absorbance was measured at 517 nm. The corresponding antioxidant activity (%AA) was calculated using the equation %AA=ADPPH−Aligand/ADPPH×100. From the plot of %AA versus ligand concentration, EC50 was determined. Three independent experiments were performed, and a statistical analysis was conducted by a one-way analysis of variance (ANOVA) with the significance threshold set at p < 0.05.
The RIV hybrids were screened for their radical-scavenging activity by using the DPPH method. These assays were conducted in two stages: first, preliminary analyses were performed for all the compounds to evaluate the percentage of radical-scavenging activity by using a compound concentration of 100 μM. Afterwards, the compounds showing more than 50% antioxidant activity (AA), under those conditions, were further assessed to evaluate the respective EC50 values.

In data set [2] the target is T1, equine butyrylcholinesterase (eqBChE) (Equus caballus, UniProt P81908).
T1 construct: purchased
T1 sequence (P81908 whole entry): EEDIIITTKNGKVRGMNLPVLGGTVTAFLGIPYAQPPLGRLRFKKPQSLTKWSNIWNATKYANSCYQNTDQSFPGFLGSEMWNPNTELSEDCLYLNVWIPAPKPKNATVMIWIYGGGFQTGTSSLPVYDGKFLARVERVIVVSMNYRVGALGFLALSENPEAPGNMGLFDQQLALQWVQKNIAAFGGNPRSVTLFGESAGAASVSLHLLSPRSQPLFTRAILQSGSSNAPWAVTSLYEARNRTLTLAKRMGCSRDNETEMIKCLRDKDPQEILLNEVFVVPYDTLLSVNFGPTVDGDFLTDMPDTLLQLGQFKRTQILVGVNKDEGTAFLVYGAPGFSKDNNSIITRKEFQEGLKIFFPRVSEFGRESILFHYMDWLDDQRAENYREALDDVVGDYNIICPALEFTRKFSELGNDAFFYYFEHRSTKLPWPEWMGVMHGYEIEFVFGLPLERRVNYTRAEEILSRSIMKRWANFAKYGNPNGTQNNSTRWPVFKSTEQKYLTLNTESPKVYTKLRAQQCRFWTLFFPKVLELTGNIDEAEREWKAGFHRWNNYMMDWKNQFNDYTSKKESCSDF
The data set can be described thus: Butyrylcholinesterase inhibition (adapted Ellman's method). The data set is classed as biochemical. Conditions: for SI (selectivity index): SI = IC50 (AChE)/IC50 (BChE); for IC50: eqBChE, read-out: BChE Inhib IC50. The method, then: (§1) The enzyme inhibition of electric eel acetylcholinesterase (eeAChE) and equine butyrylcholinesterase (eqBChE) was performed according to an adaptation of Elmman’s method. Stock solutions of 1 mg of each compound in 1 mL MeOH were prepared, and adequate dilutions were further made for each ligand. A control measurement (5 replicates without a ligand) and a calibration curve of 5 points with 3 replicates per point were conducted. Each solution included fixed volumes of 4-(2-hydroxyethyl)-1-piperazine-ethanesulfonic acid (HEPES) and cholinesterase (eeAChE or eqBChE), with different volumes of ligand solution. A blank solution containing HEPES and MeOH was also prepared at the same time. After 15 min of reaction, […] (AChI) or butyrylcholine iodide (BChI) and 5,5’-dithiobis-(2-nitrobenzoic acid) (DTNB) were added to both solutions contained in spectrophotometer cuvettes, and the absorbance at 405 nm was recorded for 5 min (time interval = 1 s, slid width = 1 nm). The slope for each calibration point (absorbance versus reaction time) was determined, and the percent inhibition was calculated by using the equation: %Inhibition=100−(vi/v0×100). where vi is the reaction rate (slope) for each point of the calibration with the ligand, and v0 is the initial reaction rate (slope) for the control point (without ligand). Finally, the five-point linear regression (10–50 µL of ligand solution) corresponding to the percentage of enzyme inhibition vs. the compound concentration allowed for the determination of the half maximal inhibitory concentration (IC50, µM) (compound concentration for which enzyme activity is reduced to half). Experiments were performed twice for each ligand. Statistical analysis was performed by a one-way analysis of variance (ANOVA) with a significance threshold set at p < 0.05.
Background: DTNB colorimetry detects thiols as they appear.

The target of the next data set is T2, Aβ1–42 (Homo sapiens, UniProt P05067).
T2 construct: the Aβ1–42 peptide (Shanghai Royobiotech Co., Ltd., Shanghai, China); purchased Shanghai Royobiotech Co., Ltd
T2 sequence (P05067 672-713): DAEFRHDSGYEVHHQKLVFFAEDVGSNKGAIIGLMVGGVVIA
In words: Inhibition of Aβ1–42 self-aggregation (ThT fluorescence). The data set is classed as biochemical. To be noted: read-out: % Aβ42 Self-Agg Inhib. The method, then: Firstly, the Aβ1–42 peptide (Shanghai Royobiotech Co., Ltd., Shanghai, China) was treated with 1,1,1,3,3,3-hexafluoropropan-2-ol (HFIP) and then dissolved in a CH3CN/Na2CO3 (300 μM)/NaOH (250 μM) (48.3:48.3:4.3, v/v/v) mixture in order to obtain a stable stock solution (500 μM).
Solutions of 1 mg of the assayed compounds in 2 mL of 1:1 (v/v) DMSO/MeOH (0.5 mg/mL) medium were prepared and then properly diluted with phosphate buffer (0.215 M, pH 8.0) to obtain a 120 μM final concentration. The Aβ1–42 self-aggregation inhibition assays were made based on a reported method, involving the fluorescence emission of thioflavin T (ThT). So, Aβ1–42 (40 μM) was incubated at 37 °C for 24 h in phosphate buffer and in the presence or absence of each ligand (40 μM for all compounds but 4AY4 and 4CY1, for which 20 μM was used). Then, […] 5 μM ThT in 50 mM glycine-NaOH (pH 8.5) buffer were added to each sample before transferring the samples to a 96-well microplate. Blank samples were also prepared without Aβ1–42. The ThT fluorescence was measured (446 and 485 nm excitation and emission wavelengths, respectively), and the percent of self-aggregation inhibition was determined by the equation:I% = 100 − (IFi/IF0 × 100) where IFi and IF0 are the fluorescence intensities, in the presence and the absence of the assayed compound, subtracted from the fluorescence intensities due to the respective blanks. The calculated values were obtained as the mean ± SEM of four different experiments conducted in duplicate. Statistical analysis was performed by a one-way analysis of variance (ANOVA) with a significance threshold set at p < 0.05.

Data set [3] addresses T3, electric eel acetylcholinesterase (eeAChE) (Electrophorus electricus, UniProt O42275).
T3 construct: purchased
In words: Acetylcholinesterase inhibition (adapted Ellman's method). The data set is classed as biochemical. Conditions: read-out: AChE Inhib IC50. The method, then: as §1

For data set [4], the system named is SH-SY5Y human neuroblastoma cell line. In words: Cell viability dose-response screening (MTT). The class given is cell-based. To be noted: 24 h. The method, then: (§2) Cell viability was assessed using the colorimetric MTT (3-(4,5-dimethylthiazol-2-yl)-2,5-diphenyltetrazolium bromide) assay, as previously described.
(§3) The compounds’ solutions (4AY1-6, 4BY1-3, and 4CY1) were prepared in DMSO to create stock solutions at a concentration of 25 mM, which were then stored at −20 °C. A concentration range from 0.5 µM to 20 µM was screened to identify the highest non-toxic dose. The SH-SY5Y human neuroblastoma cell line (ATCC-CRL-2266) was grown in Dulbecco’s modified Eagle’s medium (DMEM) (Thermo Fisher Scientific-Gibco, Waltham, MA, USA) supplemented with 10% heat-inactivated fetal calf serum, 50 U/mL penicillin, and 50 µg/mL streptomycin at 37 °C in a 5% CO2 atmosphere. The cells were seeded at a density of 0.1 × 10^6 cells/mL (when 48-well plates were used) or 0.15 × 10^6 cells/mL (when 24-well plates were used) one day before the experiment commenced. Following the seeding, the cells were treated with the selected concentrations of compounds for 24 h. After treatment, the cells were washed with PBS and incubated with 150 µL (in 48-well plates) or 200 µL (in 24-well plates) of MTT (0.5 mg/mL) for 2 h at 37 °C with 5% CO2. During this incubation, cellular dehydrogenases converted MTT into formazan crystals, which were subsequently dissolved in 150 µL (in 48-well plates) or 200 µL (in 24-well plates) of 0.04 M HCl/isopropanol, and the absorbance was measured at 570 nm.

For data set [5] the test system is unchanged. In words: Protection against iron/ascorbate-induced toxicity (MTT). The class given is cell-based. Conditions: 1 h pre-treatment at highest nontoxic concentration, then 24 h with Fe/Asc. The method, then:
as §2, §3
To evaluate the compounds’ protective effects against toxicity induced by Aβ1–42 or iron/ascorbate, the cells were pre-treated with each compound for one hour before adding Aβ1–42 or iron/ascorbate, followed by an additional 24-h incubation. Aβ1–42 (Bachem, Torrance, CA, USA) was prepared in sterile water to create a 443 µM stock solution and was added to the cells at a final concentration of 1 µM. Ferrous sulfate and L-ascorbic acid (Sigma Chemical Co., St. Louis, MO, USA) were introduced into the medium at final concentrations of 5 mM and 2.5 mM, respectively. […]

Molecules are shown by their SMILES. Entries after “also recorded” stand apart in the source; their conditions may differ.

T3 sequence (O42275 24-633): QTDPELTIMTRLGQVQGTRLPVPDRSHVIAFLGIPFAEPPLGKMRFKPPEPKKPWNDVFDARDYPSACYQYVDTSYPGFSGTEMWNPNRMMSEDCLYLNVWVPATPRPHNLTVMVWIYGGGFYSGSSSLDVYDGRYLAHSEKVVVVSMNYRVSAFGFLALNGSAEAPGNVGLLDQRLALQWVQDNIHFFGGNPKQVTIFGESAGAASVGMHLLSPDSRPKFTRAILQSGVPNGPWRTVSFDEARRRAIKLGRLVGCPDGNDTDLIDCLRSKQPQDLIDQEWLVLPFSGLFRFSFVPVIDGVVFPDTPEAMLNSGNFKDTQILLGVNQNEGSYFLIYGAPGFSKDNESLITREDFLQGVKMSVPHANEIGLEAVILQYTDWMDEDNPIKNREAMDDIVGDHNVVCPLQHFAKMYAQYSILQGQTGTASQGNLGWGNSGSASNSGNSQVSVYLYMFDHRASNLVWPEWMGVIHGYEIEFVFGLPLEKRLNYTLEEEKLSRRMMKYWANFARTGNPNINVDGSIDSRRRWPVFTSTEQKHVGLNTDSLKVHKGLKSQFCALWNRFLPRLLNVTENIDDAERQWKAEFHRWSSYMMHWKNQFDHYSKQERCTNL

With `CCN(C)C(=O)Oc1cccc(NC(=O)/C=C/C=C/c2ccc(O)c(O)c2)c1` [4AY6, 3-((2E,4E)-5-(3,4-Dihydroxyphenyl)penta-2,4-dienamido)phenyl ethyl(methyl)carbamate], in data set [1], the “% AA (radical-scavenging activity)” value was determined as 93.1 ± 0.8% and the EC50 was found to be 28 ± 0.4 µM. In data set [2], the “SI (selectivity index)” value is listed as 0.9 and the IC50 was 5.7 ± 0.6 µM. The inhibition at 40 µM on Aβ1–42 is 75 ± 7%. In addition, in data set [3], the IC50 turned out to be 5 ± 1 µM. Moreover, in data set [4], the highest nontoxic concentration came to 1 µM.
As for `CCN(C)C(=O)Oc1cccc(NC(=O)C2(C)CCc3c(C)c(O)c(C)c(C)c3O2)c1` (stereo not shown) [4AY2, 3-(6-Hydroxy-2,5,7,8-tetramethylchromane-2-carboxamido)phenyl ethyl(methyl)carbamate], in data set [1], the “% AA (radical-scavenging activity)” value is 95 ± 3% and the EC50 came to 18.1 ± 0.4 µM. Further, in data set [2], the “SI (selectivity index)” value was found to be 1.9 and the IC50 worked out at 36 ± 3 µM. The “rescue of cell viability after iron/ascorbate treatment” value in data set [5] was “capable of rescuing the cell viability; also recorded: significantly improved cell viability”. Moreover, the inhibition at 40 µM at Aβ1–42 was 45 ± 4%. The IC50 in data set [3] worked out at 69 ± 7 µM. This compound also had a highest nontoxic concentration in data set [4] (dose given for the Aβ1–42 experiments) of 1 µM. The highest nontoxic concentration in data set [4] (dose given for the iron/ascorbate experiments) is 2.5 µM.
As for `CCN(C)C(=O)Oc1cccc(CNC(=O)c2cc(OC)c(O)c(OC)c2)c1` [4BY1, 3-((4-Hydroxy-3,5-dimethoxybenzamido)methyl)phenyl ethyl(methyl)carbamate], the “% AA (radical-scavenging activity)” value in data set [1] is less than 50%. Also, the figures for the IC50 in data set [2] and in data set [3] were 75 ± 0.6 µM and more than 200 µM, respectively. The inhibition at 40 µM at Aβ1–42 is 58 ± 6%. The same compound showed a highest nontoxic concentration in data set [4] of 15 µM.
Consider `CCN(C)C(=O)Oc1cccc(CNC(=O)/C=C/c2ccc3c(c2)OCO3)c1` [4BY3, (E)-3-((3-(Benzo[d][1,3]dioxol-5-yl)acrylamido)methyl)phenyl ethyl(methyl)carbamate], for which, in data set [1], the “% AA (radical-scavenging activity)” value is recorded as less than 50%. In addition, in data set [2], the “SI (selectivity index)” value is listed as 101. In addition, the values for the IC50 in data set [2] and in data set [3] were 0.9 ± 0.2 µM and 91 ± 6 µM, respectively. Moreover, the inhibition at 40 µM on Aβ1–42 stood at 29 ± 3%. In addition, the highest nontoxic concentration in data set [4] worked out at 1 µM.
On to `COc1cc(C(=O)Nc2cccc(OC(=O)N(C)C)c2)cc(OC)c1O` [4CY1, 3-(4-Hydroxy-3,5-dimethoxybenzamido)phenyl dimethylcarbamate], for which, in data set [1], the “% AA (radical-scavenging activity)” value is reported as less than 50%. In addition, the IC50 in data set [2] was 68 ± 7 µM; in data set [3], more than 200 µM. Moreover, on Aβ1–42 (24 h), the inhibition at 20 µM was 31 ± 3%. This compound also showed a highest nontoxic concentration in data set [4] of 5 µM.
Turning to `CCN(C)C(=O)Oc1cccc(NC(=O)/C=C/c2ccc(O)c(O)c2)c1` [4AY5, (E)-3-(3-(3,4-Dihydroxyphenyl)acrylamido)phenyl ethyl(methyl)carbamate], in data set [1], the “% AA (radical-scavenging activity)” value turned out to be 96 ± 2% and the EC50 is 15.7 ± 0.4 µM. In data set [2], the “SI (selectivity index)” value is 15.3 and the IC50 worked out at 7.2 ± 0.3 µM. Further, the inhibition at 40 µM on Aβ1–42 amounted to 82 ± 5%. Also, the IC50 in data set [3] is 110 ± 5 µM. This compound also came in with a highest nontoxic concentration in data set [4] of 0.5 µM.
With `CCN(C)C(=O)Oc1cccc(NC(=O)c2cc(OC)c(O)c(OC)c2)c1` [4AY1, 3-(4-Hydroxy-3,5-dimethoxybenzamido)phenyl ethyl(methyl)carbamate], in data set [1], the “% AA (radical-scavenging activity)” value is less than 50%. Further, the values for the IC50 in data set [2] and in data set [3] were 31 ± 2 µM and more than 200 µM, respectively. Moreover, the inhibition at 40 µM on Aβ1–42 was determined as 20 ± 2%. Moreover, the highest nontoxic concentration in data set [4] was found to be 10 µM.
As for `CCN(C)C(=O)Oc1cccc(NC(=O)/C=C/c2ccc3c(c2)OCO3)c1` [4AY3, (E)-3-(3-(Benzo[d][1,3]dioxol-5-yl)acrylamido)phenyl ethyl(methyl)carbamate], the “% AA (radical-scavenging activity)” value in data set [1] is less than 50%. Also, in data set [2], the “SI (selectivity index)” value stood at 16.3 and the IC50 amounted to 3.1 ± 0.4 µM. In addition, the inhibition at 40 µM at Aβ1–42 came out at 45 ± 4%. For the same compound, the IC50 in data set [3] is 50.5 ± 0.1 µM. This compound also registered a highest nontoxic concentration in data set [4] of 5 µM.
Turning to `Cc1c(C)c2c(c(C)c1O)CCC(C)(C(=O)O)O2` (stereo not shown) [Trolox, 6-hydroxy-2,5,7,8-tetramethylchromane-2-carboxylic acid, reference compound], in data set [1], the EC50 amounted to 13.8 ± 0.2 µM.
Consider `COc1cc(/C=C/C(=O)CC(=O)/C=C/c2ccc(O)c(OC)c2)ccc1O` [Curcumin, reference compound], for which, on Aβ1–42, the inhibition at 40 µM amounted to 77 ± 1%.

What is called EC50 is the concentration at which the effect is half-maximal. A word on the IC50: it is the concentration that gives 50% inhibition.
